Source: the NIST ThermoML archive (doi:10.1021/je050305z)
± gives the expanded uncertainty stated by the source.

Details: Gas, Hot wire method

Q: Which thermal conductivity (235.41 K, 3405.4 kPa) does the source give for `N#N` [nitrogen] here?
A: 0.02334 ± 0.00057 W/m/K

Q: What about the thermal conductivity (235.72 K, 3405.4 kPa) of the same compound?
A: 0.02333 ± 0.00057 W/m/K

Q: And the thermal conductivity (255.55 K, 5432.8 kPa)?
A: 0.026 ± 0.00063 W/m/K

Q: What about the thermal conductivity (255.7 K, 1281.1 kPa) of the same compound?
A: 0.02332 ± 0.00057 W/m/K

Q: And the thermal conductivity (255.86 K, 5432.8 kPa)?
A: 0.02596 ± 0.00063 W/m/K

Q: And the thermal conductivity (256.26 K, 1281.1 kPa)?
A: 0.02323 ± 0.00056 W/m/K

Q: What about the thermal conductivity (275.39 K, 5057.3 kPa) of the same compound?
A: 0.02674 ± 0.00065 W/m/K

Q: What about the thermal conductivity (275.41 K, 1027.7 kPa) of the same compound?
A: 0.02441 ± 0.00059 W/m/K

Q: What about the thermal conductivity (276.05 K, 5057.3 kPa) of the same compound?
A: 0.0269 ± 0.00065 W/m/K

Q: And the thermal conductivity (276.11 K, 1027.7 kPa)?
A: 0.02435 ± 0.00059 W/m/K

Q: What about the thermal conductivity (295.15 K, 1844.1 kPa) of the same compound?
A: 0.02606 ± 0.00063 W/m/K

Q: What about the thermal conductivity (295.25 K, 4380.8 kPa) of the same compound?
A: 0.02731 ± 0.00066 W/m/K

Q: And the thermal conductivity (295.68 K, 1844.1 kPa)?
A: 0.02599 ± 0.00063 W/m/K

Q: And the thermal conductivity (295.92 K, 4380.8 kPa)?
A: 0.02738 ± 0.00066 W/m/K

Q: What about the thermal conductivity (325.32 K, 716 kPa) of the same compound?
A: 0.02758 ± 0.00066 W/m/K

Q: What about the thermal conductivity (325.43 K, 2042.9 kPa) of the same compound?
A: 0.02842 ± 0.00068 W/m/K

Q: What about the thermal conductivity (326.2 K, 2042.9 kPa) of the same compound?
A: 0.02845 ± 0.00068 W/m/K

Q: And the thermal conductivity (326.23 K, 4941.8 kPa)?
A: 0.02961 ± 0.00071 W/m/K

Q: What about the thermal conductivity (326.39 K, 716 kPa) of the same compound?
A: 0.02763 ± 0.00066 W/m/K
